Results: patent publication US20230000869A1, “NOVEL ALK2 INHIBITORS AND METHODS FOR INHIBITING BMP SIGNALING” (The Brigham and Women's Hospital, Inc., priority 2017, published 2023)

Tests used:
TGFb = assay: Cell assay HTRF TGFb (Table 15); assay type: cell-based; conditions: read-out: HRTF TGFb (IC50)
BMP6 = assay: Cell assay HTRF BMP6 (Table 15); assay type: cell-based
ALK2 [1] = target: T1, ALK2 (Homo sapiens, UniProt Q04771); assay: ALK2 (nM), Table 15; assay type: biochemical
T1 sequence (Q04771 147-509 limits assumed): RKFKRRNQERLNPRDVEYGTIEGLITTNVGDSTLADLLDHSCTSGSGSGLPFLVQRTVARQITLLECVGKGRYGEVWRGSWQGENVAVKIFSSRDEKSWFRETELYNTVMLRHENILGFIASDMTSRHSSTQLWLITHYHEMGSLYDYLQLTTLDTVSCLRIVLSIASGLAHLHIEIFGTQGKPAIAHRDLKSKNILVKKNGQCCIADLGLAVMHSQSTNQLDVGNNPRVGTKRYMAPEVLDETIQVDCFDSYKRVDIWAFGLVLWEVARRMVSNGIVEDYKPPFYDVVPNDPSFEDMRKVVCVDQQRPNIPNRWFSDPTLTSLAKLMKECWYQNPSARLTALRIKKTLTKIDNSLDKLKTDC

ACVR2A = ACVR2A (Homo sapiens, UniProt P27037); assay: LanthaScreen Eu kinase binding assay, BMP type II receptor ACVR2A; conditions: 10-point titration from 10 μM, 3-fold serial dilution, Life Technologies
ACVR2A, sequence (P27037 20-513): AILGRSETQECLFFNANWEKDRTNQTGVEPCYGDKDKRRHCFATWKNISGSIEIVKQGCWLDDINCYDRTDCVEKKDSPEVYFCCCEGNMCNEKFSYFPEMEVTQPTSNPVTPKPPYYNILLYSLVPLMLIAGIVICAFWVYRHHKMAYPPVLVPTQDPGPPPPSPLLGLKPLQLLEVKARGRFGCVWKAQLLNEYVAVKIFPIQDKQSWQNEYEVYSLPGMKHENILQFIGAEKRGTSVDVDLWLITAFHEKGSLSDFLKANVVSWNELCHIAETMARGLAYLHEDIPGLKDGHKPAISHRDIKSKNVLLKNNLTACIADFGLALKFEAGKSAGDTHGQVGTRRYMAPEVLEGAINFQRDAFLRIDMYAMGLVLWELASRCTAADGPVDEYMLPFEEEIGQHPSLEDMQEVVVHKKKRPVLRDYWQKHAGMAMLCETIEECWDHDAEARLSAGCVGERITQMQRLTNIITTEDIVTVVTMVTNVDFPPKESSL
From the text: (§1) For the detailed description of LanthaScreen™ Eu kinase binding assay condition, please see: https://www.thermofisher.com/us/en/home/industrial/pharma-biopharma/drug-discovery-development/target-and-lead-identification-and-validation/kinasebiology/kinase-activity-assays/lanthascreentm-eu-kinas e-binding-assay/lanthascreen-eu-kinase-binding-assay-validation-table.html.

BMPR2 = target: T2, BMPR2 (Homo sapiens, UniProt Q13873); assay: LanthaScreen Eu kinase binding assay, BMP type II receptor BMPR2; conditions: 10-point titration from 10 μM, 3-fold serial dilution, Life Technologies
T2 sequence (Q13873 27-1038): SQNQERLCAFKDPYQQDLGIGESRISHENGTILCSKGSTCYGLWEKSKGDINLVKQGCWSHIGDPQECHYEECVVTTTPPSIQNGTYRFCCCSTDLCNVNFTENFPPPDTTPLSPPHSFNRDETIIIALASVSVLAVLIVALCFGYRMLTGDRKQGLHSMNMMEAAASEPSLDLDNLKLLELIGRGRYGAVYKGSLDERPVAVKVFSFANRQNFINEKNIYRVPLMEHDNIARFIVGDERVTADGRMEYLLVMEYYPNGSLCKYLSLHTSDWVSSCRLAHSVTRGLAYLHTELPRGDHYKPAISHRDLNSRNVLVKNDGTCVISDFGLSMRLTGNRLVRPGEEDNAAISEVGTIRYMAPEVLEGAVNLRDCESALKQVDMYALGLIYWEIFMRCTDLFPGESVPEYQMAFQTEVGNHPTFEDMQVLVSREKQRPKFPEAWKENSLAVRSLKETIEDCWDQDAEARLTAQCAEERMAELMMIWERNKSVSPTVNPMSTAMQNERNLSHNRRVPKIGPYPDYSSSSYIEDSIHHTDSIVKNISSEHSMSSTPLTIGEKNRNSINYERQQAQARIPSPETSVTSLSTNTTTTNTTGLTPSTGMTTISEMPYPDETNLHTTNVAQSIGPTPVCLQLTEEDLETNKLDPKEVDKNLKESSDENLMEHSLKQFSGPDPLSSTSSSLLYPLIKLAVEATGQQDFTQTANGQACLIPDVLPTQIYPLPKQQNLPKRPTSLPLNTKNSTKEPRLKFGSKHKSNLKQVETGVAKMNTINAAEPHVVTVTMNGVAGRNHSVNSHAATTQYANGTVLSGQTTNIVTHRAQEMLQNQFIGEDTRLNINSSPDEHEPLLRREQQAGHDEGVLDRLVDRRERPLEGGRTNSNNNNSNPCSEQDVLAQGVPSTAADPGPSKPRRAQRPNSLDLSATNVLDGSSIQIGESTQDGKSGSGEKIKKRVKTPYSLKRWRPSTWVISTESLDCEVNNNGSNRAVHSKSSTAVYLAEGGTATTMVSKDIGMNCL
Procedure: (§2) Kinase Profiling BMP Type II Receptor Experimental Procedure (Life Technologies, 5225 Vernona Road, Madison, Wis. 53744)
(§3) The measurement of each compound's half maximal inhibitory concentration (IC50) for BMP type II receptors (ACVR2A, ACVR2B, BMPR2 and TGFbR2) was carried out at Life Technologies by using its 10-point titration (starting concentration: 10 μM with 3-fold serial dilution) LanthaScreen™ biochemical kinase assay protocol. For the detailed description of LanthaScreen™ Eu kinase binding assay condition, please see: https://www.thermofisher.com/us/en/home/industrial/pharma-biopharma/drug-discovery-development/target-and-lead-identification-and-validation/kinasebiology/kinase-activity-assays/lanthascreentm-eu-kinas e-binding-assay/lanthascreen-eu-kinase-binding-assay-validation-table.html.

TGFβR2 = TGFβR2 (Homo sapiens, UniProt P37173); assay: LanthaScreen Eu kinase binding assay, BMP type II receptor TGFbR2; conditions: 10-point titration from 10 μM, 3-fold serial dilution, Life Technologies
TGFβR2, sequence (P37173 23-567): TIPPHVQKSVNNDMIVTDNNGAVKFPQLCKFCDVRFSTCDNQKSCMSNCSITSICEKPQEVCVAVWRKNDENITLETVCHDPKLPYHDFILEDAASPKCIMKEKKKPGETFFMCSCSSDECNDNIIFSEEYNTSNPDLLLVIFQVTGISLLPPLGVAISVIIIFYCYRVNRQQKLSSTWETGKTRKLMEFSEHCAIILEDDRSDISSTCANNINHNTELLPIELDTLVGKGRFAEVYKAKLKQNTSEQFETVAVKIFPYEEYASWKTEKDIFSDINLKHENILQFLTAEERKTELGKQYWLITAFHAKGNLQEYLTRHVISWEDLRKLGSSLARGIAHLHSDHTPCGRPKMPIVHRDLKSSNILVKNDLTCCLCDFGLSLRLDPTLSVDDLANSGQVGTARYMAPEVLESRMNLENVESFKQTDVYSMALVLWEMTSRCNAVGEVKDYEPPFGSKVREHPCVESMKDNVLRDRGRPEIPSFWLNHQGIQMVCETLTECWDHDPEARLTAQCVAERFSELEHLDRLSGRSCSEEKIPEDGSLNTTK
From the text: as §1

ACVR2B = ACVR2B (Homo sapiens, UniProt Q13705); assay: LanthaScreen Eu kinase binding assay, BMP type II receptor ACVR2B; conditions: 10-point titration from 10 μM, 3-fold serial dilution, Life Technologies
ACVR2B, sequence (Q13705 19-512): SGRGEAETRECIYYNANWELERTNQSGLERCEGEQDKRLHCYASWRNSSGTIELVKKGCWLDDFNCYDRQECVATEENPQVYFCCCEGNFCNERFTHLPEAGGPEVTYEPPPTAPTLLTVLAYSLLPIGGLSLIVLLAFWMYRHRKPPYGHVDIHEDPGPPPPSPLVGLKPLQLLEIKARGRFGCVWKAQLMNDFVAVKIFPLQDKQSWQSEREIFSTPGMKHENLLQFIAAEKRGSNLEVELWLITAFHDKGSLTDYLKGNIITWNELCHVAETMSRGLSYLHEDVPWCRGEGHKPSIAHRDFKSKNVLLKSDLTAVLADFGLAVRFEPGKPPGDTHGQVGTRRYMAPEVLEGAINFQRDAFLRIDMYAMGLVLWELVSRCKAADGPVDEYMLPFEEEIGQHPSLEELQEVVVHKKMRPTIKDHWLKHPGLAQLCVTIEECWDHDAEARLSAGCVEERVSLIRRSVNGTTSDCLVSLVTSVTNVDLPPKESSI
Procedure: as §2, §3

ALK2 [2] = target: T3, ALK2 (Mus musculus, UniProt P37172); assay: Luciferase reporter gene assay for ALK2 activity (C2C12 BRE-Luc SMAD1/5/8 reporter, BMP6 agonist); assay type: cell-based; conditions: BMP6 50 ng/mL
T3 construct: endogenous in cells; host or cells: C2C12-BRE (BRE-Luc reporter line, G418 selection)
T3 sequence (P37172 21-509): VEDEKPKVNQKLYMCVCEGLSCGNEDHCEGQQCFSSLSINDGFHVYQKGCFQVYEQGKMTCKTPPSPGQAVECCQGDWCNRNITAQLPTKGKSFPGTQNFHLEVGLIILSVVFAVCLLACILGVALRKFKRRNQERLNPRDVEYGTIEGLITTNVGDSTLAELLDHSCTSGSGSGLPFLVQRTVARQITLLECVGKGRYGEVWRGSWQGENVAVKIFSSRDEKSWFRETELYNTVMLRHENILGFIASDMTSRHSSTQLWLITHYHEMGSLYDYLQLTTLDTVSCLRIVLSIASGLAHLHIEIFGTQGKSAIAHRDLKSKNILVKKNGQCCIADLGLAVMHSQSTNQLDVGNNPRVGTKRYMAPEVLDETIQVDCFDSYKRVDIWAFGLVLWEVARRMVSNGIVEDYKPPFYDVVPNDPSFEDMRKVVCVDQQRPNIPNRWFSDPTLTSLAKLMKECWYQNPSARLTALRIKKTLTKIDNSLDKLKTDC
Outline: (§4)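 TGFβ activity was measured in HEK293T SBE-Luc cells stimulated with 5 ng/mL TGFβ, at compound 10000-30 nM final. ALK2 activity was measured in C2C12 BRE-Luc cells stimulated with 50 ng/mL BMP6, at compound 1000-0.3 nM final. Compound was preincubated 45 min in 2% FBS medium; after ≥18 h agonist exposure, luminescence was read and inhibition expressed as % signal loss versus background-subtracted agonist controls.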

TGFβ = assay: Luciferase reporter gene assay for TGFβ activity (HEK293T SBE-Luc SMAD2/3 reporter, TGFβ agonist); assay type: cell-based; conditions: Homo sapiens, HEK-293T, TGFβ 5 ng/mL
Outline: as §4

| SMILES | IC50 (ALK2 [2]) [µM] | IC50 (TGFβ) [µM] | other results |
| --- | --- | --- | --- |
| c1ccc2c(-c3cnn4cc(N5CCN(C6CCNCC6)CC5)cnc34)ccnc2c1 [Compound 79] |  |  | IC50 (TGFb): 4.61 µM; IC50 (BMP6): 0.0974 µM; IC50 (ALK2 [1]): 0.11 µM; IC50 (ACVR2A): 0.851 µM; IC50 (BMPR2): > 10 µM; IC50 (TGFβR2): 0.0713 µM; IC50 (ACVR2B): 1.28 µM |
| c1ccc2c(-c3cnn4cc(N5CCNCC5)cnc34)ccnc2c1 [Compound 80] | 0.025 | 0.033 | IC50 (TGFb): 5.79 µM; IC50 (BMP6): 0.25 µM; IC50 (ALK2 [1]): 0.093 µM; IC50 (ACVR2A): 3.71 µM; IC50 (BMPR2): ≥ 10 µM; IC50 (TGFβR2): 0.194 µM; IC50 (ACVR2B): 3.61 µM |
| COc1cc(F)c2nccc(-c3cnn4cc(N5CC(N6CCN(C)CC6)C5)cnc34)c2c1 [Compound 314] | 0.008 | 0.027 |  |
| Cc1cc(-c2cnn3cc(N4CC(N5CCN(C)CC5)C4)cnc23)c2ccc(F)c(F)c2n1 [Compound 315] | 0.023 | 0.03 |  |
| Cc1cc(-c2cnn3cc(N4CC(N5CCN(C)CC5)C4)cnc23)c2cccc(F)c2n1 [Compound 316] | 0.022 | < 0.02 |  |
| [2H]C([2H])([2H])c1ccc2nccc(-c3cnn4cc(N5CCC(N6CCN(C)CC6)CC5)cnc34)c2c1 [Compound 320] | 0.027 | 0.605 |  |
| COc1cc2c(-c3cnn4cc(N5CCC(N6CCN(C)C(=O)C6)CC5)cnc34)ccnc2cc1F [Compound 323] | 0.194 | > 1 |  |
| COc1cc2c(-c3cnn4cc(N5CCC(N6CCN(C)CC6)CC5)cnc34)cc[n+]([O-])c2cc1F [Compound 324] | 0.178 | 0.723 |  |
| COc1cc2c(-c3cnn4cc(N5CCNCC5=O)cnc34)ccnc2cc1F [Compound 326] | > 1 | > 3 |  |
| COc1cc2c(-c3cnn4cc(N5CCC(N6CCN(C)CC6=O)CC5)cnc34)ccnc2cc1F [Compound 329] | > 1 | > 3 |  |
| COc1cc2c(-c3cnc4cc(N5CC(N6CCN(C)CC6)C5)cnn34)ccnc2cc1F [Compound 335] | 0.047 | > 2 |  |
| Cc1cc(-c2cnn3cc(N4CC5(CC(N(C)C)C5)C4)cnc23)c2ccccc2n1 [Compound 337] | 0.009 | < 0.001 |  |
| CN1CCN(C2CN(c3cnc4c(N5CCN(C(=O)C6CC6)CC5)cnn4c3)C2)CC1 [Compound 339] | > 1 | > 3 |  |
| Cc1ccc2nccc(-c3cnn4cc(N5CCC(N6CCOCC6)CC5)cnc34)c2c1 [Compound 341] | 0.015 | 0.771 |  |
| [2H]C([2H])([2H])Oc1cc2c(-c3cnn4cc(N5CCC(N6CCN(C)CC6)CC5)cnc34)ccnc2cc1F [Compound 346] | 0.018 | 0.686 |  |
| Cc1cc(-c2cnn3cc(N4CC(OCCN(C)C)C4)cnc23)c2ccccc2n1 [Compound 350] | 0.477 | 0.975 |  |
| COc1cc2c(-c3cnc4cc(N5CCC(N6CCN(C)CC6)CC5)ccn34)ccnc2cc1F [Compound 351] | 0.372 | > 3 |  |
| COc1cc2c(-c3nnc4cc(N5CCC(N6CCN(C)CC6)CC5)ccn34)ccnc2cc1F [Compound 354] | > 1 | > 3 |  |
| COc1cc2c(-c3cnc4cc(N5CCC(N6CCN(C)CC6)CC5)cnn34)ccnc2cc1F [Compound 355] | 0.146 | 0.791 |  |
| Cc1ccc2nccc(-c3cnn4cc(N5CC(c6ccncc6)C5)cnc34)c2c1 [Example 292] | 0.159 | 0.595 |  |
| Cc1cc(-c2cnn3cc(N4CC5(CC(N)C5)C4)cnc23)c2ccccc2n1 [Example 295] | 0.013 | 0.389 |  |
| COc1cc2c(-c3cnn4cc(N5C[C@@H]6C(N(C)C)[C@@H]6C5)cnc34)ccnc2cc1F (stereo partly drawn) [Example 297] | 0.021 | > 1 |  |
| Cc1cc(-c2cnn3cc(N4CC5(CN(C)C5)C4)cnc23)c2ccccc2n1 [Example 298] | 0.003 | < 0.001 |  |
| Cc1cc2c(-c3cnn4cc(N5CC(N6CCOCC6)C5)cnc34)ccnc2cc1F [Example 301] | 0.018 | < 0.02 |  |
